Data as given in ChEMBL document CHEMBL1671662, “In vitro activities of telavancin and six comparator agents against anaerobic bacterial isolates” (2009).
≈ marks a conversion by molar mass, not a printed value.

What was measured:
[1] = tested on: Prevotella melaninogenica; assay: Antibacterial activity against Prevotella melaninogenica by CLSI M11-A6 agar dilution method; format: functional
Prevotella intermedia [2] = assay: Antibacterial activity against Prevotella intermedia by CLSI M11-A6 agar dilution method; format: functional
Bifidobacterium dentium = assay: Antibacterial activity against Bifidobacterium dentium by CLSI M11-A6 agar dilution method; format: functional
Bifidobacterium breve = assay: Antibacterial activity against Bifidobacterium breve by CLSI M11-A6 agar dilution method; format: functional
Bifidobacterium bifidum = assay: Antibacterial activity against Bifidobacterium bifidum by CLSI M11-A6 agar dilution method; format: functional
Coriobacterium = assay: Antibacterial activity against […] by CLSI M11-A6 agar dilution method; format: functional
[3] = tested on: Clostridium sporosphaeroides; assay: Antibacterial activity against Clostridium sporosphaeroides by CLSI M11-A6 agar dilution method; format: functional; settings: Faecalispora sporosphaeroides
[4] = tested on: Catenibacterium mitsuokai; assay: Antibacterial activity against Catenibacterium mitsuokai by CLSI M11-A6 agar dilution method; format: functional
Bacteroides ovatus = assay: Antibacterial activity against Bacteroides ovatus by CLSI M11-A6 agar dilution method; format: functional
Clostridium spiroforme = assay: Antibacterial activity against Clostridium spiroforme by CLSI M11-A6 agar dilution method; format: functional; settings: Thomasclavelia spiroformis
Holdemania filiformis = assay: Antibacterial activity against Holdemania filiformis by CLSI M11-A6 agar dilution method; format: functional
[5] = tested on: Paeniclostridium sordellii; assay: Antibacterial activity against Clostridium sordellii by CLSI M11-A6 agar dilution method; format: functional; settings: Paraclostridium sordellii
Prevotella corporis = assay: Antibacterial activity against Prevotella corporis by CLSI M11-A6 agar dilution method; format: functional
[Clostridium] innocuum = Antibacterial activity against Clostridium innocuum by CLSI M11-A6 agar dilution method; format: functional
Prevotella oris = assay: Antibacterial activity against Prevotella oris by CLSI M11-A6 agar dilution method; format: functional; settings: Segatella oris
[6] = tested on: Clostridium celerecrescens; assay: Antibacterial activity against Clostridium celerecrescens by CLSI M11-A6 agar dilution method; format: functional; settings: Lacrimispora celerecrescens
Clostridium butyricum = assay: Antibacterial activity against Clostridium butyricum by CLSI M11-A6 agar dilution method; format: functional
Prevotella intermedia [7] = assay: Antibacterial activity against Prevotella P intermedia by CLSI M11-A6 agar dilution method; format: functional
Clostridium bolteae = assay: Antibacterial activity against Clostridium bolteae by CLSI M11-A6 agar dilution method; format: functional; settings: Enterocloster bolteae
Prevotella buccae = assay: Antibacterial activity against Prevotella buccae by CLSI M11-A6 agar dilution method; format: functional; settings: Segatella buccae
Ruminococcus obeum = assay: Antibacterial activity against Ruminococcus obeum by CLSI M11-A6 agar dilution method; format: functional; settings: Blautia obeum
Blautia producta = assay: Antibacterial activity against Ruminococcus productus by CLSI M11-A6 agar dilution method; format: functional
Hoylesella loescheii = assay: Antibacterial activity against Prevotella loescheii by CLSI M11-A6 agar dilution method; format: functional
[8] = tested on: Paraclostridium bifermentans; assay: Antibacterial activity against Clostridium bifermentans by CLSI M11-A6 agar dilution method; format: functional
[9] = Antibacterial activity against Bifidobacterium infantis by CLSI M11-A6 agar dilution method; format: functional, Bifidobacterium longum subsp. infantis; settings: Bifidobacterium longum
Bacteroides fragilis = assay: Antibacterial activity against Bacteroides fragilis by CLSI M11-A6 agar dilution method; format: functional
Clostridium disporicum = assay: Antibacterial activity against Clostridium disporicum by CLSI M11-A6 agar dilution method; format: functional
Anaerococcus tetradius = assay: Antibacterial activity against Anaerococcus tetradius by CLSI M11-A6 agar dilution method; format: functional
Clostridium = assay: Antibacterial activity against Clostridium hypermegas by CLSI M11-A6 agar dilution method; format: functional
[10] = tested on: Peptostreptococcus anaerobius; assay: Antibacterial activity against Peptostreptococcus anaerobius by CLSI M11-A6 agar dilution method; format: functional
Clostridioides difficile = assay: Antibacterial activity against Clostridium difficile by CLSI M11-A6 agar dilution method; format: functional
Clostridium sp. = assay: Antibacterial activity against Clostridium sp. by CLSI M11-A6 agar dilution method; format: functional
Clostridium glycolicum = assay: Antibacterial activity against Clostridium glycolicum by CLSI M11-A6 agar dilution method; format: functional; settings: Terrisporobacter glycolicus
[11] = tested on: Coprobacillus cateniformis; assay: Antibacterial activity against Coprobacillus cateniformis by CLSI M11-A6 agar dilution method; format: functional
Blautia luti = assay: Antibacterial activity against Ruminococcus luti by CLSI M11-A6 agar dilution method; format: functional
Eggerthella lenta = assay: Antibacterial activity against Eggerthella lenta by CLSI M11-A6 agar dilution method; format: functional
Clostridium leptum = assay: Antibacterial activity against Clostridium leptum by CLSI M11-A6 agar dilution method; format: functional
Anaerococcus prevotii = assay: Antibacterial activity against Anaerococcus prevotii by CLSI M11-A6 agar dilution method; format: functional
[12] = tested on: Ruminococcus flavefaciens; assay: Antibacterial activity against Ruminococcus flavefaciens by CLSI M11-A6 agar dilution method; format: functional

CN[C@H](CC(C)C)C(=O)N[C@H]1C(=O)N[C@@H](CC(N)=O)C(=O)N[C@H]2C(=O)N[C@H]3C(=O)N[C@H](C(=O)N[C@H](C(=O)O)c4cc(O)cc(O)c4-c4cc3ccc4O)[C@H](O)c3ccc(c(Cl)c3)Oc3cc2cc(c3O[C@@H]2O[C@H](CO)[C@@H](O)[C@H](O)[C@H]2O[C@H]2C[C@](C)(N)[C@H](O)[C@H](C)O2)Oc2ccc(cc2Cl)[C@H]1O [VANCOMYCIN]
MIC50 [1]: 32 µg/mL (≈ 22.1 µM)
MIC90 [1]: > 128 µg/mL
MIC50 (Prevotella intermedia [2]): 32 µg/mL (≈ 22.1 µM)
MIC90 (Prevotella intermedia [2]): > 128 µg/mL
MIC50 (Bifidobacterium dentium): 0.5 µg/mL (≈ 0.345 µM)
MIC90 (Bifidobacterium dentium): 4 µg/mL (≈ 2.76 µM)
MIC50 (Bifidobacterium breve): 0.5 µg/mL (≈ 0.345 µM)
MIC90 (Bifidobacterium breve): 4 µg/mL (≈ 2.76 µM)
MIC50 (Bifidobacterium bifidum): 0.5 µg/mL (≈ 0.345 µM)
MIC90 (Bifidobacterium bifidum): 4 µg/mL (≈ 2.76 µM)
MIC50 (Coriobacterium): 0.5 µg/mL (≈ 0.345 µM)
MIC90 (Coriobacterium): 4 µg/mL (≈ 2.76 µM)
MIC50 [3]: 1 µg/mL (≈ 0.69 µM)
MIC90 [3]: 4 µg/mL (≈ 2.76 µM)
MIC50 [4]: 0.5 µg/mL (≈ 0.345 µM)
MIC90 [4]: 4 µg/mL (≈ 2.76 µM)
MIC50 (Bacteroides ovatus): 128 µg/mL (≈ 88.3 µM)
MIC90 (Bacteroides ovatus): 128 µg/mL (≈ 88.3 µM)
MIC50 (Clostridium spiroforme): 1 µg/mL (≈ 0.69 µM)
MIC90 (Clostridium spiroforme): 4 µg/mL (≈ 2.76 µM)
MIC50 (Holdemania filiformis): 0.5 µg/mL (≈ 0.345 µM)
MIC90 (Holdemania filiformis): 4 µg/mL (≈ 2.76 µM)
MIC50 [5]: 1 µg/mL (≈ 0.69 µM)
MIC90 [5]: 4 µg/mL (≈ 2.76 µM)
MIC50 (Prevotella corporis): 32 µg/mL (≈ 22.1 µM)
MIC90 (Prevotella corporis): > 128 µg/mL
MIC ([Clostridium] innocuum): 16 µg/mL (≈ 11 µM)
MIC50 ([Clostridium] innocuum): 16 µg/mL (≈ 11 µM)
MIC90 ([Clostridium] innocuum): 16 µg/mL (≈ 11 µM)
MIC50 (Prevotella oris): 32 µg/mL (≈ 22.1 µM)
MIC90 (Prevotella oris): > 128 µg/mL
MIC50 [6]: 1 µg/mL (≈ 0.69 µM)
MIC90 [6]: 4 µg/mL (≈ 2.76 µM)
MIC50 (Clostridium butyricum): 1 µg/mL (≈ 0.69 µM)
MIC90 (Clostridium butyricum): 4 µg/mL (≈ 2.76 µM)
MIC50 (Prevotella intermedia [7]): 32 µg/mL (≈ 22.1 µM)
MIC90 (Prevotella intermedia [7]): > 128 µg/mL
MIC50 (Clostridium bolteae): 2 µg/mL (≈ 1.38 µM)
MIC90 (Clostridium bolteae): 2 µg/mL (≈ 1.38 µM)
MIC50 (Prevotella buccae): 32 µg/mL (≈ 22.1 µM)
MIC90 (Prevotella buccae): > 128 µg/mL
MIC50 (Ruminococcus obeum): 0.5 µg/mL (≈ 0.345 µM)
MIC90 (Ruminococcus obeum): 0.5 µg/mL (≈ 0.345 µM)
MIC50 (Blautia producta): 0.5 µg/mL (≈ 0.345 µM)
MIC90 (Blautia producta): 1 µg/mL (≈ 0.69 µM)
MIC50 (Hoylesella loescheii): 32 µg/mL (≈ 22.1 µM)
MIC90 (Hoylesella loescheii): > 128 µg/mL
MIC50 [8]: 1 µg/mL (≈ 0.69 µM)
MIC90 [8]: 4 µg/mL (≈ 2.76 µM)
MIC50 [9]: 0.5 µg/mL (≈ 0.345 µM)
MIC90 [9]: 4 µg/mL (≈ 2.76 µM)
MIC50 (Bacteroides fragilis): 64 µg/mL (≈ 44.2 µM)
MIC90 (Bacteroides fragilis): 64 µg/mL (≈ 44.2 µM)
MIC50 (Clostridium disporicum): 1 µg/mL (≈ 0.69 µM)
MIC90 (Clostridium disporicum): 4 µg/mL (≈ 2.76 µM)
MIC50 (Anaerococcus tetradius): 0.5 µg/mL (≈ 0.345 µM)
MIC90 (Anaerococcus tetradius): 1 µg/mL (≈ 0.69 µM)
MIC50 (Clostridium): 1 µg/mL (≈ 0.69 µM)
MIC90 (Clostridium): 4 µg/mL (≈ 2.76 µM)
MIC50 [10]: 0.5 µg/mL (≈ 0.345 µM)
MIC90 [10]: 1 µg/mL (≈ 0.69 µM)
MIC50 (Clostridioides difficile): 1 µg/mL (≈ 0.69 µM)
MIC90 (Clostridioides difficile): 2 µg/mL (≈ 1.38 µM)
MIC50 (Clostridium sp.): 1 µg/mL (≈ 0.69 µM)
MIC90 (Clostridium sp.): 4 µg/mL (≈ 2.76 µM)
MIC50 (Clostridium glycolicum): 1 µg/mL (≈ 0.69 µM)
MIC90 (Clostridium glycolicum): 4 µg/mL (≈ 2.76 µM)
MIC50 [11]: 0.5 µg/mL (≈ 0.345 µM)
MIC90 [11]: 4 µg/mL (≈ 2.76 µM)
MIC50 (Blautia luti): 0.5 µg/mL (≈ 0.345 µM)
MIC90 (Blautia luti): 1 µg/mL (≈ 0.69 µM)
MIC50 (Eggerthella lenta): 0.5 µg/mL (≈ 0.345 µM)
MIC90 (Eggerthella lenta): 4 µg/mL (≈ 2.76 µM)
MIC50 (Clostridium leptum): 1 µg/mL (≈ 0.69 µM)
MIC90 (Clostridium leptum): 4 µg/mL (≈ 2.76 µM)
MIC50 (Anaerococcus prevotii): 0.5 µg/mL (≈ 0.345 µM)
MIC90 (Anaerococcus prevotii): 1 µg/mL (≈ 0.69 µM)
MIC50 [12]: 0.5 µg/mL (≈ 0.345 µM)
MIC90 [12]: 1 µg/mL (≈ 0.69 µM)
